Measurements as given in US4806554A, “Pyrazol and indazolpyridinamines” (Hoechst-Roussel Pharmaceuticals, Inc., priority 1988, dated 1989).
Where two headings read alike, the source gives them in different places.

Experiments:
[1] = system: 2-phenyl-1,4-benzoquinone-induced writhing in mice; assay: 2-phenyl-1,4-benzoquinone-induced writhing (PQW) test in mice (analgesia); type: in vivo; settings: s.c.
Excerpt: Compounds I of the present invention are also useful as analgesic agents due to their ability to alleviate pain in mammals. […] Exptl. Biol. Med., 95, 729(1957)] and in modified Haffner's analgesia.

[2] = system: sensitivity of mice to pressure stress (artery clip on tail); assay: Modified Haffner's analgesia (artery clip on tail); type: in vivo, mice (Charles River; settings: Mus musculus, sc; at peak time of drug activity; male CD-1 mice
Excerpt: The latter assay is used to evaluate analgesic activity by measuring drug-induced changes in the sensitivity of mice to pressure stress by placing an artery clip (21/2 inches long) on their tail. The procedure used is a modification of the test developed by Haffner, Dtsch. Med. Wschr. 55, 731 (1929), and it is described below:
Male mice (Charles River, CD-1) from 18-30 grams are used for the test. An artery clip is applied to the root of the tail of a mouse (approximately 1/2 inch from the body) to induce pain. The animals quickly responds to this noxious stimuli by biting the clip or the location of the clip. This reaction time, the interval between stimulus onset and response, is recorded on 1/10 second increments by a stop watch.
For a time response, the screening dose (25 mg/kg) is administered subcutaneously (10 ml/kg) to the animal receiving food and water ad libitum before testing. […]
The cut-off time (CO) is determined by taking the (x) average +3 standard (SD) deviation of the combined response latencies of the control mice in all time periods.
Any reaction time, in subsequent drug tests, which is greater than the CO (for the same time period) therefore exceeds 99% of normal Gaussian distribution and is called "positive response" indicative of analgesic activity. […] The ED50 is determined at the peak time of drug activity. […] ED50 's are calculated using computer analysis.

[3] = system: tetrabenazine-induced ptosis in mice; assay: Prevention of tetrabenazine-induced ptosis in mice (antidepressant activity); type: in vivo; settings: Mus musculus, po, read-out: ED50 (antidepressant activity)
Excerpt: The test method and results are described below.
PREVENTION OF TETRABENAZINE-INDUCED PTOSIS IN MICE
Tetrabenazine (TBZ) induces behavioral depression with concomitant ptosis in mice similar to reserpine. Antidepressant compounds, both monoamineoxidase inhibitors and tricyclics, are known to prevent or antagonize these effects and the degree of antagonism correlates with clinical efficacy. The prevention of TBZ-induced ptosis in mice is used as a preliminary screen for possible antidepressant activity. The method used in this invention is as follows:
Male mice weighing 20 to 30 grams are used in test groups of five subjects. All compounds are dissolved or suspended with a suitable surfactant in distilled water and administered in volumes of 10 ml/kg of body weight. TBZ solution is made from the methanesulfonate salt and the concentration is adjusted to enable administration of 60 mg/kg of base by intraperitoneal (i.p.) injection.
The pretreatment time is measured from the time of dosing to observation. Therefore, when a 30-minute pretreat is utilized, drug and TBZ are given simultaneously. A control group received solvent and TBZ at intervals identical to drug group. For a primary screen, the drug is administered i.p. and a group size of five is utilized. Eight animals/group are used for a dose range.
The total score for each group of five in a primary screen will, therefore, be from 0 to 20 and these scores are used as indications of drug activity.
The vehicle control group score is used as a determinant of the validity of each test. […] The calculation of percent inhibition of ptosis is: [formula]

Structure (SMILES): CC(C)=CCN1CCC2(C)c3cc(O)ccc3CC1C2C (centres unmarked) [Pentazocin, reference compound]
- PQW (% Inhibition of writhing) ([1]; at 1.3 mg/kg): 50%
- ED50 [2]: 3.9 mg/kg

Structure (SMILES): CCCN(c1ccncc1)n1ncc2ccccc21.O=C(O)/C=C\C(=O)O [N-(Propyl)-N-(4-pyridinyl)-1H-indazol-1-amine maleate]
- ED50 ([3]; TBZ 60 mg/kg i.p., male mice): 8.5 mg/kg
- PQW (% Inhibition of writhing) ([1]; at 20 mg/kg): 62%

Structure (SMILES): CNCCCN1c2ccccc2CCc2ccccc21 [Desipramine, reference compound]
- ED50 [3]: 2.3 mg/kg

Structure (SMILES): O=C(O)/C=C\C(=O)O.c1ccc2c(c1)cnn2Nc1ccncc1 [N-(4-Pyridinyl)-1H-indazol-1-amine maleate]
- ED50 ([3]; TBZ 60 mg/kg i.p., male mice): 2.7 mg/kg
- PQW (% Inhibition of writhing) ([1]; at 0.7 mg/kg): 50%
- ED50 [2]: 10.4 mg/kg
